Experimental data taken from patent US12234211B2, “Cycloolefin substituted heteroaromatic compounds and their use” (HUTCHISON MEDIPHARMA LIMITED, priority 2017, dated 2025).
pIC50: −log10 of the molar value.

Columns and labels:
IDH1-R132H = biological target: T1, IDH1-R132H (Homo sapiens, UniProt O75874, R132H); test: Fluorescent determination of IDH1-R132H cell activity (2-HG in U87MGR132H cells); format: cell-based; conditions: 2-HG inhibition in U87MGR132H cells transfected with IDH1-R132H mutant plasmid
T1 construct: expressed in transfected cells; host or cells: U87MG cells (U87MGR132H)
T1 sequence (O75874 whole entry R132H): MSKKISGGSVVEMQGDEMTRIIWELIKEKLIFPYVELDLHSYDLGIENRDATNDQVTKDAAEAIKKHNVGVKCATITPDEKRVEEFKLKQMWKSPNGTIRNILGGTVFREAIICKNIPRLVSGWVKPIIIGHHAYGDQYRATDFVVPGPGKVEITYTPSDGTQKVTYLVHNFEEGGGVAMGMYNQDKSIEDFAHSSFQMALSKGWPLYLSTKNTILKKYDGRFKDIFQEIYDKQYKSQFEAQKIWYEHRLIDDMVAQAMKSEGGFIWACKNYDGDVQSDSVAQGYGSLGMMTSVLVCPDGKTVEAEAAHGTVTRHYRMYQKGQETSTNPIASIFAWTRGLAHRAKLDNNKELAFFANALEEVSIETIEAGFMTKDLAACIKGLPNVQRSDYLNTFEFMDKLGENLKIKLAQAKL

IDH2-R140Q = biological target: T2, IDH2-R140Q (Homo sapiens, UniProt P48735, R140Q); test: Fluorescent determination of IDH2-R140Q cell activity (2-HG in U87MGR140Q cells); format: cell-based; conditions: 72 hours incubation, read-out: IC50 (2-HG inhibition)
T2 construct: expressed in transfected cells
T2 sequence (P48735 40-452 R140Q): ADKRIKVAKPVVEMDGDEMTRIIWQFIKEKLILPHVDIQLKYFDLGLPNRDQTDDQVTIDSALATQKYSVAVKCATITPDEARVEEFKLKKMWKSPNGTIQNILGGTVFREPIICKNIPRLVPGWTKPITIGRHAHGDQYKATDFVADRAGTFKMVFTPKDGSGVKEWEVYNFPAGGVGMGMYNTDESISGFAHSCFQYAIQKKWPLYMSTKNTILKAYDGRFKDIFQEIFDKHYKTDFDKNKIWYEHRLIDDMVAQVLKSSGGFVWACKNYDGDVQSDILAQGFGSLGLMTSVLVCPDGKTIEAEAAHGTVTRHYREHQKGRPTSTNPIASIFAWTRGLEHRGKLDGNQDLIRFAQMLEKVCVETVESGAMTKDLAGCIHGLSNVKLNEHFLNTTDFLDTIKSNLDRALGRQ
Procedure: Enzyme reaction solution: 1 mM nicotinamide adenine dinucleotide (NAD), 0.6 ng/μL D-2-hydroxyglutarate dehydrogenase (D2HGDH), 0.8 U/mL lipoamidase dehydrogenase (Diaphorase) and 60 μM Resazurin in 40 mM Tris.HCl pH 8.8 assay buffer.
Standard curve stock solution: The standard of 2-HG sodium salt was serially diluted in serum-free MEM medium to make a standard curve stock solution.
100 μL of U87MGR140Q cells were seeded at a density of 6×10^4/mL per well in a 96-well plate a.
From each well of 96-well plate a, 50 μL of the culture supernatant was transferred to the corresponding well of 96-well plate b; at the same time, 50 μL of standard curve stocking solution was added to other wells of 96-well plate b. Then 10 μl of 360 mM hydrochloric acid was added to all the wells. After shaking and mixing, the plate was placed on ice for 10 minutes, and then 10 μl of 420 mM Tris-base was added. After shaking and mixing, the plate was placed on ice for additional 5 minutes. Then the plate was centrifuged at 2500 rpm for 10 minutes.
After centrifuging, from each well of 96-well plate b, 20 μL of the supernatant was transferred to 96-well plate c. An additional 80 μL of the enzyme reaction solution was added to each well and incubated at 25° C. for 90 minutes.
A standard curve of the fluorescence value vs. the corresponding 2-HG concentration was made, and the 2-HG concentration corresponding to each concentration point of the compound was calculated, then the inhibition ratio was calculated, and the data was analyzed using XLfit5 (ID Business Solutions Limited) software to obtain the IC50 value.
The inhibition ratio was calculated as follows: Inhibition Ratio (IH %)=(1-2-HG concentration of test compound treated cells/2-HG concentration of control cells)×100%.

Compound	pIC50 (IDH1-R132H)	pIC50 (IDH2-R140Q)
C[C@H](Nc1nc(N[C@H](C)C(F)(F)F)nc(C2=C(F)C(O)CCC2)n1)C1CC1 (mixture of isomers) [Compound 8]	5.91	6.67
C[C@@H](Nc1nc(NCC2CC(F)(F)C2)nc(C2=C(F)C(O)CCC2)n1)C(F)(F)F (mixture of isomers) [Compound 13]	5.68	6.43
C[C@H](Nc1nc(N[C@@H](C)C(F)(F)F)nc(C2=C(F)C(O)CCC2)n1)C(F)(F)F (mixture of isomers) [Compound 14]	5.88	6.64
CCC(Nc1nc(N[C@H](C)C(F)(F)F)nc(C2=C(F)C(O)CCC2)n1)C(F)(F)F (mixture of isomers) [Compound 15]	6.21	6.59
C[C@@H](Nc1nc(NC2CC(F)(F)C2)nc(C2=C(F)C(O)CCC2)n1)C(F)(F)F (mixture of isomers) [Compound 31]	6.55	6.96
C[C@H](Nc1nc(NC2CC(F)(F)C2)nc(C2=C(F)C(O)CCC2)n1)C(F)(F)F (mixture of isomers) [Compound 32]	6.21	7.10
CC(C)(C)ONc1nc(Nc2ccc3sncc3c2)nc(C2=C(F)C(O)CCC2)n1 (racemic) [Compound 34]	< 5.00	6.84
C[C@@H](Nc1nc(NC2CCCC2)nc(C2=CC(O)CCC2)n1)C(F)(F)F (mixture of isomers) [Compound 130]	6.13	7.17
CC(C)CNc1nc(N[C@H](C)C(F)(F)F)nc(C2=CC(O)CCC2)n1 (mixture of isomers) [Compound 134]	5.61	7.00
C[C@@H](Nc1nc(NC2CCCCC2)nc(C2=CC(O)CCC2)n1)C(F)(F)F (mixture of isomers) [Compound 136]	5.87	6.53
C[C@@H](Nc1nc(N[C@H](C)C(F)(F)F)nc(C2=C(F)C(O)CCC2)n1)c1ccccc1 (mixture of isomers) [Compound 152, 2-Fluoro-3-(4-(((R)-1-phenylethyl)amino)-6-(((R)-1,1,1-trifluoropropan-2-yl)amino)-1,3,5-triazin-2-yl)cyclohex-2-en-1-ol]	5.70	6.52
C[C@@H](Nc1nc(NC2CCCC2(F)F)nc(C2=C(F)C(O)CCC2)n1)C(F)(F)F (mixture of isomers) [Compound 166]	5.87	6.74
C[C@@H](Nc1nc(NCC2CCC2(F)F)nc(C2=C(F)C(O)CCC2)n1)C(F)(F)F (mixture of isomers) [Compound 171]	5.80	6.57
CC(Nc1nc(N[C@H](C)C(F)(F)F)nc(C2=C(F)C(O)CCC2)n1)C(F)F (mixture of isomers) [Compound 174]	6.46	7.02
CC(Nc1nc(N[C@H](C)C(F)(F)F)nc(C2=C(F)C(O)CCC2)n1)C(C)(F)F (mixture of isomers) [Compound 175]	6.31	6.54
CC(C)Nc1nc(Nc2ccc3ccnn3c2)nc(C2=C(F)C(O)CCC2)n1 (racemic) [Compound 200]	< 5.00	6.20
CC(C)Nc1nc(Nc2ccc3nscc3c2)nc(C2=C(F)C(O)CCC2)n1 (racemic) [Compound 229]	< 5.00	6.42
C[C@@H](Nc1nc(N[C@H](C)C(F)(F)F)nc(C2=C(F)C(=O)C(F)CC2)n1)C(F)(F)F (mixture of isomers) [Compound 242, 3-(4,6-Bis(((R)-1,1,1-trifluoropropan-2-yl)amino)-1,3,5-triazin-2-yl)-2,6-difluoro-cyclohex-2-en-1-one]	5.45	6.10
CC(C)Nc1nc(N[C@H](C)C(F)(F)F)nc(C2=C(F)C(O)C(F)CC2)n1 (single isomer, unassigned) [Compound 96]	5.57	6.17
C[C@@H](Nc1nc(N[C@H](C)C(F)(F)F)nc(C2=C(F)C(O)C(F)(F)CC2)n1)C(F)(F)F (single isomer, unassigned) [Compound 198]	5.72	6.07
OC1C(F)=C(c2nc(Nc3ccnc(C(F)(F)F)c3)nc(N3CC(F)(F)C3)n2)CCC1(F)F (single isomer, unassigned) [Compound 221]	< 5.00	6.31
C[C@@H](Nc1nc(NCC2CC2)nc(C2=C(F)C(O)C(F)CC2)n1)C(F)(F)F (single isomer, unassigned) [Compound 225]	6.04	7.44
C[C@@H](Nc1nc(NCC2CC2)nc(C2=C(F)C(O)C(F)CC2)n1)C(F)(F)F (single isomer, unassigned) [Compound 226]	5.29	6.44
